The values that follow come from Sander's compilation of Henry's law constants (doi:10.1136/oem.36.3.231).

This data set is described as follows: Henry solubility constant Hcp at 310 K (mol/(m3 Pa)). The conditions noted are these: reference: Sato and Nakajima (1979a).
As for `Cc1ccccc1C` [1,2-dimethylbenzene], the “Henry solubility constant Hcp at 310 K” value came out at 0.001.
Consider `Cc1cccc(C)c1` [1,3-dimethylbenzene], for which the “Henry solubility constant Hcp at 310 K” value came out at 0.00064.
In the case of `Cc1ccc(C)cc1` [1,4-dimethylbenzene] it was 0.00061; in that of `CCCCCC(C)=O` [2-heptanone], 0.037.
As to `CCCCC(C)=O` [2-hexanone], the “Henry solubility constant Hcp at 310 K” value was determined as 0.043.
Take `CCCC(C)=O` [2-pentanone]: the “Henry solubility constant Hcp at 310 K” value is 0.064.
In the case of `C=CCc1ccccc1` [2-propenylbenzene] it was 0.0014.
In the case of `CCC(=O)CC` [3-pentanone], the “Henry solubility constant Hcp at 310 K” value turned out to be 0.07.
With `CC(=O)CC(C)C` [4-methyl-2-pentanone] the figure was 0.031.
As to `CC(C)c1ccccc1` [(2-propyl)-benzene], the “Henry solubility constant Hcp at 310 K” value amounted to 0.00056.
For `c1ccccc1` [benzene], the “Henry solubility constant Hcp at 310 K” value amounted to 0.0011.
For the compound `C=Cc1ccccc1` [ethenylbenzene], the “Henry solubility constant Hcp at 310 K” value is 0.0018.
In the case of `CCc1ccccc1` [ethylbenzene], the “Henry solubility constant Hcp at 310 K” value worked out at 0.00066.
Regarding `Cc1ccccc1` [methylbenzene], the “Henry solubility constant Hcp at 310 K” value was 0.00086.
As for `CC(C)=O` [propanone], the “Henry solubility constant Hcp at 310 K” value came out at 0.15.
As for `CCCc1ccccc1` [propylbenzene], the “Henry solubility constant Hcp at 310 K” value was 0.0005.
